Assay results published in the supplement of paper PMC10307832.

Legend:
Experiment in all cases: relative viability (nuclei count vs DMSO), 5 days (fraction); higher = more cells survive
[1] = tested on: 201T
How it was run: (§1)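 Values are medians from duplicate plates. Each reflects relative viability, defined as the nuclei count of treated wells over that of vehicle wells. Lung cancer cell lines in 1536-well plates were pin-tool dosed one day after seeding with one drug alone or with a fixed anchor-drug dose plus five library-drug doses (not always all listed) in √10 steps, then fixed, stained and imaged at 4× after 5 days.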

[2] = tested on: BEN
How it was run: as §1

[3] = tested on: CAL-12T
How it was run: as §1

[4] = tested on: HCC-827
How it was run: as §1

[5] = tested on: LCLC-103H
How it was run: as §1

[6] = tested on: LCLC-97TM1
How it was run: as §1

[7] = tested on: LXF-289
How it was run: as §1

[8] = tested on: NCI-H1395
How it was run: as §1

[9] = tested on: NCI-H1437
How it was run: as §1

[10] = tested on: NCI-H1650
How it was run: as §1

[11] = tested on: NCI-H1793
How it was run: as §1

[12] = tested on: NCI-H1944
How it was run: as §1

[13] = tested on: NCI-H2087
How it was run: as §1

[14] = tested on: NCI-H2228
How it was run: as §1

[15] = tested on: NCI-H2405
How it was run: as §1

[16] = tested on: NCI-H3122
How it was run: as §1

[17] = tested on: NCI-H322M
How it was run: as §1

[18] = tested on: NCI-H647
How it was run: as §1

[19] = tested on: NCI-H727
How it was run: as §1

[20] = tested on: RERF-LC-KJ
How it was run: as §1

[21] = tested on: SK-LU-1
How it was run: as §1

Compound `CCN(CC)CCCCNc1ncc2cc(-c3cc(OC)cc(OC)c3)c(NC(=O)NC(C)(C)C)nc2n1` + O=C(CCCCCCC(=O)Nc1ccccc1)NO [Vorinostat] (partner 1 µM) has a relative viability ([1]; first compound 0.01 µM) of 1, a relative viability ([1]; first compound 0.03162 µM) of 1.03 and a relative viability ([1]; first compound 0.1 µM) of 0.973. It also gave a relative viability ([1]; first compound 0.3162 µM) of 0.981, a relative viability ([1]; first compound 1 µM) of 0.887 and a relative viability ([2]; first compound 0.01 µM) of 0.617. It also gave a relative viability ([2]; first compound 0.03162 µM) of 0.547, a relative viability ([2]; first compound 0.1 µM) of 0.579 and a relative viability ([2]; first compound 0.3162 µM) of 0.544. For the same compound, the relative viability ([2]; first compound 1 µM) was 0.546, the relative viability ([3]; first compound 0.01 µM) was 0.784 and the relative viability ([3]; first compound 0.03162 µM) was 0.702. For the same compound, the relative viability ([3]; first compound 0.1 µM) was 0.766, the relative viability ([3]; first compound 0.3162 µM) was 0.778 and the relative viability ([3]; first compound 1 µM) was 0.845. For the same compound, the relative viability ([4]; first compound 0.01 µM) was 0.883, the relative viability ([4]; first compound 0.03162 µM) was 0.969 and the relative viability ([4]; first compound 0.1 µM) was 0.866. It also gave a relative viability ([4]; first compound 0.3162 µM) of 0.937, a relative viability ([4]; first compound 1 µM) of 0.674 and a relative viability ([5]; first compound 0.01 µM) of 0.776. The relative viability ([5]; first compound 0.03162 µM) was 0.805, the relative viability ([5]; first compound 0.1 µM) was 0.775 and the relative viability ([5]; first compound 0.3162 µM) was 0.788. The relative viability ([5]; first compound 1 µM) was 0.769, the relative viability ([6]; first compound 0.01 µM) was 0.805 and the relative viability ([6]; first compound 0.03162 µM) was 0.779. It also gave a relative viability ([6]; first compound 0.1 µM) of 0.615, a relative viability ([6]; first compound 0.3162 µM) of 0.865 and a relative viability ([6]; first compound 1 µM) of 0.699. It also gave a relative viability ([7]; first compound 0.01 µM) of 0.768, a relative viability ([7]; first compound 0.03162 µM) of 0.905 and a relative viability ([7]; first compound 0.1 µM) of 0.829. The relative viability ([7]; first compound 0.3162 µM) was 0.85, the relative viability ([7]; first compound 1 µM) was 0.661 and the relative viability ([8]; first compound 0.01 µM) was 0.648. For the same compound, the relative viability ([8]; first compound 0.03162 µM) was 0.786, the relative viability ([8]; first compound 0.1 µM) was 0.714 and the relative viability ([8]; first compound 0.3162 µM) was 0.742. For the same compound, the relative viability ([8]; first compound 1 µM) was 0.513, the relative viability ([9]; first compound 0.01 µM) was 0.88 and the relative viability ([9]; first compound 0.03162 µM) was 0.821. It also gave a relative viability ([9]; first compound 0.1 µM) of 0.827, a relative viability ([9]; first compound 0.3162 µM) of 0.948 and a relative viability ([9]; first compound 1 µM) of 0.82. The relative viability ([10]; first compound 0.01 µM) was 0.625, the relative viability ([10]; first compound 0.03162 µM) was 0.616 and the relative viability ([10]; first compound 0.1 µM) was 0.531. For the same compound, the relative viability ([10]; first compound 0.3162 µM) was 0.655, the relative viability ([10]; first compound 1 µM) was 0.432 and the relative viability ([11]; first compound 0.01 µM) was 0.724. For the same compound, the relative viability ([11]; first compound 0.03162 µM) was 0.707, the relative viability ([11]; first compound 0.1 µM) was 0.898 and the relative viability ([11]; first compound 0.3162 µM) was 0.816. For the same compound, the relative viability ([11]; first compound 1 µM) was 0.599, the relative viability ([12]; first compound 0.01 µM) was 0.536 and the relative viability ([12]; first compound 0.03162 µM) was 0.676. It also gave a relative viability ([12]; first compound 0.1 µM) of 0.596, a relative viability ([12]; first compound 0.3162 µM) of 0.576 and a relative viability ([12]; first compound 1 µM) of 0.521. It also gave a relative viability ([13]; first compound 0.01 µM) of 0.669, a relative viability ([13]; first compound 0.03162 µM) of 0.71 and a relative viability ([13]; first compound 0.1 µM) of 0.893. The relative viability ([13]; first compound 0.3162 µM) was 0.886, the relative viability ([13]; first compound 1 µM) was 0.514 and the relative viability ([14]; first compound 0.01 µM) was 0.643. The relative viability ([14]; first compound 0.03162 µM) was 0.515, the relative viability ([14]; first compound 0.1 µM) was 0.807 and the relative viability ([14]; first compound 0.3162 µM) was 0.794. The relative viability ([14]; first compound 1 µM) was 0.595, the relative viability ([15]; first compound 0.01 µM) was 0.795 and the relative viability ([15]; first compound 0.03162 µM) was 1.03. It also gave a relative viability ([15]; first compound 0.1 µM) of 1.08, a relative viability ([15]; first compound 0.3162 µM) of 1.22 and a relative viability ([15]; first compound 1 µM) of 0.94. The relative viability ([16]; first compound 0.01 µM) was 0.983, the relative viability ([16]; first compound 0.03162 µM) was 1.06 and the relative viability ([16]; first compound 0.1 µM) was 1.09. The relative viability ([16]; first compound 0.3162 µM) was 0.996, the relative viability ([16]; first compound 1 µM) was 1.14 and the relative viability ([17]; first compound 0.01 µM) was 0.787. It also gave a relative viability ([17]; first compound 0.03162 µM) of 0.911, a relative viability ([17]; first compound 0.1 µM) of 0.934 and a relative viability ([17]; first compound 0.3162 µM) of 0.966. For the same compound, the relative viability ([17]; first compound 1 µM) was 0.872, the relative viability ([18]; first compound 0.01 µM) was 0.525 and the relative viability ([18]; first compound 0.03162 µM) was 0.645. For the same compound, the relative viability ([18]; first compound 0.1 µM) was 0.582, the relative viability ([18]; first compound 0.3162 µM) was 0.511 and the relative viability ([18]; first compound 1 µM) was 0.491. The relative viability ([19]; first compound 0.01 µM) was 1.2, the relative viability ([19]; first compound 0.03162 µM) was 1.09 and the relative viability ([19]; first compound 0.1 µM) was 1.47. For the same compound, the relative viability ([19]; first compound 0.3162 µM) was 1.23, the relative viability ([19]; first compound 1 µM) was 1.23 and the relative viability ([20]; first compound 0.01 µM) was 0.748. It also gave a relative viability ([20]; first compound 0.03162 µM) of 0.71, a relative viability ([20]; first compound 0.1 µM) of 0.764 and a relative viability ([20]; first compound 0.3162 µM) of 0.794. The relative viability ([20]; first compound 1 µM) was 0.661, the relative viability ([21]; first compound 0.01 µM) was 0.922 and the relative viability ([21]; first compound 0.03162 µM) was 0.795. For the same compound, the relative viability ([21]; first compound 0.1 µM) was 0.782, the relative viability ([21]; first compound 0.3162 µM) was 0.973 and the relative viability ([21]; first compound 1 µM) was 0.67.
